What was measured:
[1] = molecular target: T1, SNAP-FLAG/α-FLAG antibody complex (Homo sapiens, UniProt P16455, A127T/A154D/C150Q/C62A/E30R/G131K/G132T/G153L/K125A/K32I/L33F/M134L/N157G/Q115S/Q116H/R128A/R135S/S151G/S152D/S159E); experiment: Proximity-labeling assay in cell lysate (anti-biotin / anti-mouse Western blot); assay type: biochemical; conditions: 500 nM probe
T1 construct: host or cells: clarified lysate of HEK293T cells transiently or stably expressing SnapFlag
T1 sequence (P16455 1-182 E30R/K32I/L33F/C62A/Q115S/Q116H/K125A/A127T/R128A/G131K/G132T/M134L/R135S/C150Q/S151G/S152D/G153L/A154D/N157G/S159E limits assumed): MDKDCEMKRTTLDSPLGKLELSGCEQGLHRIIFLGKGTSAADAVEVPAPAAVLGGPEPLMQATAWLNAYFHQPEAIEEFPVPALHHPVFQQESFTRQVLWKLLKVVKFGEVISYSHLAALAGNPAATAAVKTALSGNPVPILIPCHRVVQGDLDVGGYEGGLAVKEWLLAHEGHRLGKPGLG
Protocol: Proximity-labeling assays: Clarified cell lysate from HEK293T cells either transiently (see FIG. 4B) or stably (see FIG. 4C) expressing SNAP-Tag (NEB #N9183S; New England Biolabs, Ipswich, Mass., United States of America) or SnapFlag was normalized to 1 mg/mL and 250 μL aliquots incubated in a microcentrifuge tube with either 500 nM of PP1. PP2, or DMSO for 1 hour at 37° C. Washed anti-FLAG M2 affinity gel, 40 μL of a 50% slurry, was transferred to each reaction in 750 μL of DPBS and the resultant suspension left to rotate overnight at 4° C. (Sigma #A2220; Sigma-Aldrich, St. Louis, Mo., United States of America). Samples were then spun down at 4000×g, supernatant aspirated, and the resin washed with 1M urea in DPBS (1 mL×8) followed by DPBS (1 mL). After being resuspended in 100 μL of DPBS, the samples were placed on ice where they were irradiated with 365 nm light for 10 minutes (SPECTROLINKER™ XL-1500a UV crosslinker, Spectronics Corporation, Westbury, N.Y., United States of America). Once irradiated, the beads were washed with 100 mM pH 3.5 glycine buffer (100 μL×2) and DPBS (1 mL). To elute the remaining SNAP-FLAG and resin-bound FLAG-antibody the beads were boiled for 5 minutes at 95° C. in 20 μL 4×-loading buffer containing 8% SDS and 400 mM DTT. After which, 60 μL of DPBS was added and the suspension boiled at 95° C. for an additional 5 minutes. The samples were then run on SDS-PAGE gel and transferred to nitrocellulose where they were stained with anti-mouse IR dye (Li-cor #926-68072; Li-cor Biosciences, Lincoln, Nebr., United States of America) and streptavidin IR dye (Li-cor #926-32230; Li-cor Biosciences, Lincoln, Nebr., United States of America). Bands corresponding to biotinylated proteins and the FLAG antibody were visualized using an Odyssey infrared imager (Li-cor Biosciences, Lincoln, Nebr., United States of America).
To study if proximal protein interactors could be labeled in response to the dual photoactivation of PP1 in vitro, the interaction between SNAP-FLAG protein and an α-FLAG monoclonal antibody (mAb) was examined in cell lysate. In this assay, proximal biotinylation of both heavy and light chains of the antibody was expected, as well as self-labeling of the SNAP-FLAG protein, under conditions where the protein complex is formed and the PP1 probe is photoactivated. To test this hypothesis in the presence and absence of the protein-protein complex, SNAP protein that contained or lacked the FLAG epitope was treated with PP1 probe, followed by incubation with α-FLAG mAb, bead-based pulldown of the complexes, and subsequent photoactivation. […] The requirement for photoactivation of PP1, as well as a related probe PP2 (see FIG. 6) was tested by forming the SNAP-FLAG/α-FLAG complexes, and then comparing protein biotinylation with or without irradiation.
To study if proximal protein interactors could be labeled in response to the dual photoactivation of AC1 (see FIG. 12A) in vitro, the interaction between SNAP-FLAG protein and an α-FLAG monoclonal antibody (mAb) was examined in cell lysate. Briefly, 250 μL aliquots of cell lysate (HEK293T, SNAP-Flag) was incubated in a microcentrifuge tube with either 500 nM of photoprobe, or DMSO for 1 hour at 37° C. Washed anti-FLAG M2 affinity gel, 40 μL of a 50% slurry, was transferred to each reaction in 750 μL of DPBS and the resultant suspension left to rotate overnight at 4° C. (Sigma #A2220; Sigma-Aldrich, St. Louis, Mo., United States of America). Samples were then spun down at 4000×g, supernatant aspirated, and the resin washed with 1M urea in DPBS (1 mL×8) followed by DPBS (1 mL). After being resuspended in 250 μL of DPBS, the +UV samples were placed on ice where they were irradiated with 365 nm light for 10 minutes (SPECTROLINKER™ XL-1500a UV crosslinker, Spectronics Corporation, Westbury, N.Y., United States of America). Once irradiated, the beads were washed with 1 M Urea (1 mL×2) and DPBS (1 mL×2). […]

[2] = molecular target: T2, recombinant SNAP-Tag protein (Homo sapiens, UniProt P16455, A127T/A154D/C150Q/C62A/E30R/G131K/G132T/G153L/K125A/K32I/L33F/M134L/N157G/Q115S/Q116H/R128A/R135S/S151G/S152D/S159E); experiment: In vitro photocleavage assay (in-gel fluorescence); assay type: biochemical; conditions: recombinant SNAP-Tag labeled with probe, 0-10 minutes irradiation
T2 construct: His6 (N)
T2 sequence (P16455 1-182 E30R/K32I/L33F/C62A/Q115S/Q116H/K125A/A127T/R128A/G131K/G132T/M134L/R135S/C150Q/S151G/S152D/G153L/A154D/N157G/S159E): T1 sequence (P16455 1-182 E30R/K32I/L33F/C62A/Q115S/Q116H/K125A/A127T/R128A/G131K/G132T/M134L/R135S/C150Q/S151G/S152D/G153L/A154D/N157G/S159E limits assumed)
Protocol: In vitro photocleavage assay: Recombinant purified His6-SNAP-Tag (20 μg) was incubated in 200 μL DPBS containing 5 μM PP1 for 1 hour at 37° C. Afterward, the reaction was divided into six 30 μL aliquots, placed on ice, and irradiated with 365 nm light using a SPECTROLINKER™ XL-1500a UV crosslinker (Spectroline, Spectronics, Corporation, Westbury, N.Y., United States of America). Samples were successively removed from irradiation after 0, 0.5, 1, 2.5, 5, 10 minutes of irradiation, diluted with loading buffer, and run on SDS-PAGE gel. Photocleavage was judged by in-gel fluorescence visualized using a ChemiDoc imaging system (Bio-Rad Laboratories, Hercules, Calif., United States of America) scanning for fluorescein.
A first generation P3 chemical proteomic method was designed to facilitate several activities, including: 1) specific probe labeling of POIs in live cells; 2) spatial and temporal control of probe photoactivation and proximal labeling; 3) subsequent enrichment and identification of labeled proteins after cell lysis. […] The BnG targeting element is connected to dual photoreactive elements, a central substituted nitroveratryl carbamate, and a tethered diazirine, which upon irradiation with 365 nm light will simultaneously trigger cleavage and diffusion of the probe away from the SNAP-Tag-POI, as well as unmasking of a highly reactive carbene, respectively. […]

| Proximal labeling of heavy/light chain without irradiation ([1]; not exposed to 365 nm light (FIG. 4C)) | SMILES | Proximal labeling of heavy and light chains upon irradiation ([1]; 365 nm light 10 minutes (FIG. 4C, FIG. 12B)) | Fluorescence of labeled protein after irradiation at 365 nm (photocleavage) [2] |
| --- | --- | --- | --- |
| No proximal labeling | COc1cc(C(C)OC(=O)NCCCCC(NC(=O)CCC2(C)N=N2)C(=O)NCCNC(=O)CCCCC2SCC3NC(=O)NC32)c([N+](=O)[O-])cc1OCCCC(=O)NCCOCCOC(=O)NCc1ccc(COc2nc(N)nc3[nH]cnc23)cc1 (stereo not drawn) [PP2] | a discrete biotinylated band was formed on both heavy and light chains |  |
|  | COc1cc(C(C)OC(=O)NCCNC(=S)Nc2ccc3c(c2)C2(OC3=O)c3ccc(O)cc3Oc3cc(O)ccc32)c([N+](=O)[O-])cc1OCCCC(=O)NCc1ccc(COc2nc(N)nc3[nH]cnc23)cc1 (stereo not drawn) [PF-BnG] |  | complete loss of fluorescence within minutes |

Reference: patent US20230137943A1, “PHOTOPROXIMITY PROFILING OF PROTEIN-PROTEIN INTERACTIONS IN CELLS” (The University of Chicago, priority 2019, published 2023)
